Laboratory results published in PubChem BioAssay AID1259407 (Chemical Carcinogenesis Research Information System (CCRIS), 2018).
Calls of active or inactive are those of the source. No rule for the calls is given here.

Test system: CCRIS mutagenicity, Ames/micronucleus/aberration tests
Assay: CCRIS mutagenicity studies
[1] = Test System: AMES SALMONELLA TYPHIMURIUM, Strain/Indicator: TA98, Metabolic Activation: NONE, Method: PREINCUBATION
[2] = Test System: AMES SALMONELLA TYPHIMURIUM, Strain/Indicator: TA100, Metabolic Activation: NONE, Method: PREINCUBATION
[3] = Test System: AMES SALMONELLA TYPHIMURIUM, Strain/Indicator: TA100, Metabolic Activation: NONE, Method: STANDARD PLATE

Measured: mutagenic call

CCc1ccc([N+](=O)[O-])cc1
inactive: [1] inactive; negative | Test System: AMES SALMONELLA TYPHIMURIUM, Strain/Indicator: TA98, Metabolic Activation: RAT, LIVER, S-9, KANECHLOR 500, Method: PREINCUBATION inactive; negative | [2] inactive; negative | Test System: AMES SALMONELLA TYPHIMURIUM, Strain/Indicator: TA100, Metabolic Activation: RAT, LIVER, S-9, KANECHLOR 500, Method: PREINCUBATION inactive; negative

O=[N+]([O-])c1ccc2c(c1)Oc1ccccc1O2
inactive: Test System: AMES SALMONELLA TYPHIMURIUM, Strain/Indicator: TA98(NR), Metabolic Activation: NONE, Method: SUSPENSION inactive; negative | [2] inactive; negative | Test System: AMES SALMONELLA TYPHIMURIUM, Strain/Indicator: TA100, Metabolic Activation: NONE, Method: SUSPENSION inactive; negative | Test System: AMES SALMONELLA TYPHIMURIUM, Strain/Indicator: TA100, Metabolic Activation: RAT, LIVER, S-9, PCB (5%), Method: PREINCUBATION inactive; negative | Test System: AMES SALMONELLA TYPHIMURIUM, Strain/Indicator: TA100, Metabolic Activation: RAT, LIVER, S-9, PCB, Method: SUSPENSION inactive; negative
active: Test System: AMES SALMONELLA TYPHIMURIUM, Strain/Indicator: TA98(1,8-DNP6), Metabolic Activation: NONE, Method: PREINCUBATION active; positive | Test System: AMES SALMONELLA TYPHIMURIUM, Strain/Indicator: TA98(1,8-DNP6), Metabolic Activation: NONE, Method: SUSPENSION active; positive | Test System: AMES SALMONELLA TYPHIMURIUM, Strain/Indicator: TA98(1,8-DNP6), Metabolic Activation: RAT, LIVER, S-9, PCB (5%), Method: PREINCUBATION active; positive | Test System: AMES SALMONELLA TYPHIMURIUM, Strain/Indicator: TA98(NR), Metabolic Activation: RAT, LIVER, S-9 (15%), Method: PREINCUBATION active; positive | Test System: AMES SALMONELLA TYPHIMURIUM, Strain/Indicator: TA98(NR), Metabolic Activation: RAT, LIVER, S-9, 3-METHYLCHOLANTHRENE (15%), Method: PREINCUBATION active; positive | Test System: AMES SALMONELLA TYPHIMURIUM, Strain/Indicator: TA98(NR), Metabolic Activation: RAT, LIVER, S-9, BETA-NAPHTHOFLAVONE (15%), Method: PREINCUBATION active; positive | Test System: AMES SALMONELLA TYPHIMURIUM, Strain/Indicator: TA98(NR), Metabolic Activation: RAT, LIVER, S-9, PCB (5 OR 15%), Method: PREINCUBATION active; positive | Test System: AMES SALMONELLA TYPHIMURIUM, Strain/Indicator: TA98(NR), Metabolic Activation: RAT, LIVER, S-9, PHENOBARBITAL (15%), Method: PREINCUBATION active; positive | [1] active; positive | Test System: AMES SALMONELLA TYPHIMURIUM, Strain/Indicator: TA98, Metabolic Activation: NONE, Method: STANDARD PLATE active; positive | Test System: AMES SALMONELLA TYPHIMURIUM, Strain/Indicator: TA98, Metabolic Activation: NONE, Method: SUSPENSION active; positive | Test System: AMES SALMONELLA TYPHIMURIUM, Strain/Indicator: TA98, Metabolic Activation: RAT, LIVER, S-9, AROCLOR, Method: STANDARD PLATE active; positive | Test System: AMES SALMONELLA TYPHIMURIUM, Strain/Indicator: TA98, Metabolic Activation: RAT, LIVER, S-9, PCB (5%), Method: PREINCUBATION active; positive | Test System: AMES SALMONELLA TYPHIMURIUM, Strain/Indicator: TA98, Metabolic Activation: RAT, LIVER, S-9, PCB, Method: SUSPENSION active; positive | [3] active; positive | Test System: AMES SALMONELLA TYPHIMURIUM, Strain/Indicator: TA100, Metabolic Activation: RAT, LIVER, S-9, AROCLOR, Method: STANDARD PLATE active; positive

C1CC[C@H]2O[C@H]2C1
inactive: [1] inactive; negative | Test System: AMES SALMONELLA TYPHIMURIUM, Strain/Indicator: TA98, Metabolic Activation: RAT LIVER S-9, PHENOBARBITAL AND BETA-NAPHTHOFLAVONE, Method: PREINCUBATION inactive; negative | Test System: AMES SALMONELLA TYPHIMURIUM, Strain/Indicator: TA1537, Metabolic Activation: NONE, Method: PREINCUBATION inactive; negative | Test System: AMES SALMONELLA TYPHIMURIUM, Strain/Indicator: TA1537, Metabolic Activation: RAT LIVER S-9, PHENOBARBITAL AND BETA-NAPHTHOFLAVONE, Method: PREINCUBATION inactive; negative | Test System: AMES SALMONELLA TYPHIMURIUM, Strain/Indicator: TA1538, Metabolic Activation: NONE, Method: PREINCUBATION inactive; negative | Test System: AMES SALMONELLA TYPHIMURIUM, Strain/Indicator: TA1538, Metabolic Activation: RAT LIVER S-9, PHENOBARBITAL AND BETA-NAPHTHOFLAVONE, Method: PREINCUBATION inactive; negative | Test System: E. COLI, Strain/Indicator: WP2UVRA, Metabolic Activation: NONE, Method: PREINCUBATION inactive; negative
active: Test System: AMES SALMONELLA TYPHIMURIUM, Strain/Indicator: TA98, Metabolic Activation: HAMSTER, LIVER, S-9, AROCLOR 1254, Method: STANDARD PLATE active; positive | Test System: AMES SALMONELLA TYPHIMURIUM, Strain/Indicator: TA98, Metabolic Activation: RAT, LIVER, S-9, AROCLOR 1254, Method: STANDARD PLATE active; positive | Test System: AMES SALMONELLA TYPHIMURIUM, Strain/Indicator: TA100, Metabolic Activation: HAMSTER, LIVER, S-9, AROCLOR 1254, Method: STANDARD PLATE active; positive | [2] active; positive | [3] active; positive | Test System: AMES SALMONELLA TYPHIMURIUM, Strain/Indicator: TA100, Metabolic Activation: RAT LIVER S-9, PHENOBARBITAL AND BETA-NAPHTHOFLAVONE, Method: PREINCUBATION active; positive | Test System: AMES SALMONELLA TYPHIMURIUM, Strain/Indicator: TA100, Metabolic Activation: RAT, LIVER, S-9, AROCLOR 1254, Method: STANDARD PLATE active; positive | Test System: AMES SALMONELLA TYPHIMURIUM, Strain/Indicator: TA1535, Metabolic Activation: NONE, Method: PREINCUBATION active; positive | Test System: AMES SALMONELLA TYPHIMURIUM, Strain/Indicator: TA1535, Metabolic Activation: NONE, Method: STANDARD PLATE active; positive | Test System: AMES SALMONELLA TYPHIMURIUM, Strain/Indicator: TA1535, Metabolic Activation: RAT LIVER S-9, PHENOBARBITAL AND BETA-NAPHTHOFLAVONE, Method: PREINCUBATION active; positive | Test System: E. COLI, Strain/Indicator: WP2UVRA, Metabolic Activation: RAT LIVER S-9, PHENOBARBITAL AND BETA-NAPHTHOFLAVONE, Method: PREINCUBATION active; positive | Test System: MOUSE LYMPHOMA, Strain/Indicator: L5178Y (TK+/TK-), Metabolic Activation: NONE, Method: SUSPENSION/PLATE active; positive. reevaluation of results: positive | Test System: Mouse lymphoma, Strain/Indicator: L5178Y (tk+/tk-), Metabolic Activation: Rat, Liver, S-9, Aroclor 1254, Method: Suspension/plate active; positive

CC(C)(O)[C@H]1CC[C@@](C)([C@H]2[C@@H](O)C[C@@]3(C)[C@@H]4CC[C@H]5C(C)(C)C(=O)CC[C@@]56C[C@@]46CC[C@]23C)O1
inactive: End Point: IN VITRO MICRONUCLEUS, Test System: HUMAN PERIPHERAL LYMPHOCYTES, Metabolic Activation: NONE inactive; negative
